Data from BindingDB's records for patent US10065950 (Japan Tobacco Inc, 2018).

biological target: Gag-Pol polyprotein (Human immunodeficiency virus type 1 group M subtype B (isolate NY5), UniProt P12497); experiment: HIV Integrase Inhibitory Assay; conditions: 25 °C

COC[C@@H]1Cn2cc(-c3nnc(Cc4ccc(F)cc4)s3)c(=O)c(O)c2C(=O)N1C(C)C [US10065950, Example 3] was tested. Which IC50 did it give?
The IC50 was 8.5 nM.

COC[C@H]1CN(C(C)C)C(=O)c2c(O)c(=O)c(-c3nnc(Cc4ccc(F)cc4)s3)cn21 [US10065950, Example 4] was tested. Which IC50 did it give?
The IC50 was 10 nM.

How did the IC50 turn out when CC(C)N1C[C@H](C)n2cc(-c3nnc(Cc4ccc(F)cc4)s3)c(=O)c(O)c2C1=O [US10065950, Example 5] was run?
Its IC50 is 7.4 nM.

For CC(C)N1C(=O)c2c(O)c(=O)c(-c3nnc(Cc4ccc(F)cc4)s3)cn2C[C@H]1C [US10065950, Example 6], which IC50 is on record?
Its IC50 is 5.6 nM.

CCN1C(=O)c2c(O)c(=O)c(-c3nnc(Cc4ccc(F)cc4)s3)cn2C[C@H]1COC [US10065950, Example 9] was tested. Which IC50 did it give?
Its IC50 is 9.1 nM.

For COC[C@@H]1Cn2cc(-c3nnc(Cc4ccc(F)cc4)s3)c(=O)c(O)c2C(=O)N1CC1CC1 [US10065950, Example 10], which IC50 is on record?
The IC50 was 8.8 nM.

For CCOC[C@@H]1Cn2cc(-c3nnc(Cc4ccc(F)cc4)s3)c(=O)c(O)c2C(=O)N1CC1CC1 [US10065950, Example 11], which IC50 is on record?
Its IC50 is 6.4 nM.

Which IC50 does the source give for CCOC[C@@H]1Cn2cc(-c3nnc(Cc4ccc(F)cc4)s3)c(=O)c(O)c2C(=O)N1C(C)C [US10065950, Example 12] here?
The IC50 was 7.3 nM.

With CCOC[C@@H]1Cn2cc(-c3nnc(Cc4ccc(F)cc4)s3)c(=O)c(O)c2C(=O)N1CC [US10065950, Example 13] as the compound, how does the IC50 read?
Its IC50 is 6.4 nM.

How did the IC50 turn out when CCN1C(=O)c2c(O)c(=O)c(-c3nnc(Cc4ccc(F)cc4)s3)cn2[C@@H](C)[C@H]1COC [US10065950, Example 14] was run?
Its IC50 is 10 nM.

With COCCOC[C@H]1CN(C(C)C)C(=O)c2c(O)c(=O)c(-c3nnc(Cc4ccc(F)cc4)s3)cn21 [US10065950, Example 15] as the compound, how does the IC50 read?
The IC50 was 13 nM.

For COCCOC[C@H]1CN(C2CC2)C(=O)c2c(O)c(=O)c(-c3nnc(Cc4ccc(F)cc4)s3)cn21 [US10065950, Example 16], which IC50 is on record?
The IC50 was 20 nM.

CCN1C[C@](C)(C(=O)N2CCC2)n2cc(-c3ncc(Cc4ccc(F)cc4)s3)c(=O)c(O)c2C1=O [US10065950, Example 17] was tested. Which IC50 did it give?
The IC50 was 7.9 nM.
